Source: article PMC7822816, “Halo-fluorescein for photodynamic bacteria inactivation in extremely acidic conditions” (Nature Communications, 2021)
“And” between values parts separate entries of the source, which are not always exact repeats. Identical values can stand only once.

Tested on: bacteria in passionfruit lemon juice
Experiment: Photodynamic sterilization of acidic juices
Procedure: The prepared juice samples were divided into two groups: one for light treatment of 10–20 min (xenon lamp with 420 nm long-pass filter, 100 mW/cm^2), and another without (stored at 4 °C). […] For other juices (pH 3.6–4.6), similar bacteria inhibition results were obtained (Supplementary Figs. 63–66). Besides, the greatly extended shelf life was also applicable to strawberry juice (Supplementary Fig. 67) and tomato juice (Supplementary Fig. 68). […] It should be noted that the TIF-based method was efficient in treatment of acid- and heat-resistant A. acidoterrestris (Fig. 6), the main cause of fruit juice spoilage and deterioration (even after pasteurization[41]).
Fresh juices were prepared and divided into two groups (each to a culture dish of 60 mm id), and then TIF was added with final concentration of 10 μM. One group was subjected to light processing (xenon lamp, 300 W, 420 nm optical filter, beam spot size 60 mm) for 10–20 min, and another without. All samples were sub-packed into the headspace bottle and stored in 4 °C for different time. To determine the bacteria colonies, 1 mL juice samples were mixed with plate count agar and culture at 37 °C for 48 h (GB 4789.2-2016). Afterward, the total number of bacteria colonies were counted.

O=C(O)c1ccccc1-c1c2cc(I)c(=O)c(I)c-2oc2c(I)c(O)c(I)cc12 [TIF, 2′,4′,5′,7′-tetraiodofluorescein]
shelf life of juice after photo-treatment (passionfruit lemon juice pH 2.8, 10 μM, xenon lamp 420 nm long-pass 100 mW/cm^2, 10 min, stored at 4 °C): ~ 15 days and 15 days
sterilization performance compared with standard methods (passionfruit lemon juice, versus pasteurization and O3 treatment): comparable sterilization performance as pasteurization
